Our source for the TGI values is PubChem BioAssay (NCI).

Experiment in all cases: DTP human tumour cell line panel, 48 h
For assay [1], the system named is A549 NSCLC.
In assay [2] the test system is UACC-62 melanoma.
In assay [3] the test system is COLO 205 colon.
The test system of assay [4] is SK-MEL-28 melanoma.
Assay [5] has as its system M14 melanoma.
Assay [6] concerns HOP-62 NSCLC.
In assay [7] the test system is MDA-MB-435.
For assay [8], the system named is SK-OV-3 ovarian.
In assay [9] the test system is HCT-116 colon.
For assay [10], the system named is IGROV1 ovarian.
The subject of assay [11] is OVCAR-3 ovarian.
Assay [12] has as its system SNB-75 CNS.
Assay [13] relates to MDA-MB-231 breast.
The subject of assay [14] is OVCAR-5 ovarian.
Assay [15] relates to HL-60(TB) leukemia.
Assay [16] deals with MALME-3M melanoma.
The subject of assay [17] is RPMI-8226 leukemia.

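96-well plates; 48 h exposure; 5 concentrations. Endpoints by linear interpolation between flanking doses. Not reached: highest tested concentration assigned. The concentration for full growth arrest is given as TGI.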

As usually defined, the TGI is the concentration giving total growth inhibition. `Cc1nc(C)c(C(=O)NNC(=O)C[N+](C)(C)C)cc1C(=O)NNC(=O)C[N+](C)(C)C`: the TGI in assay [1], in assay [2], in assay [3], in [4], in assay [5] and in assay [6] was above 100 µM throughout. Moreover, the TGI in assay [7], in assay [8], in assay [9], in assay [10], in assay [11] and in assay [12] was above 100 µM throughout. The TGI in assay [13], in [14] and in [15] was above 100 µM throughout.
Take `O=C1OCC/C1=N/O`: the TGI in assay [1], in assay [2], in assay [3], in assay [4], in [5] and in assay [16] was above 100 µM throughout. The TGI in [8], in [17], in [9], in [10], in assay [11] and in assay [12] was above 100 µM in each case. The TGI in [14] and in assay [15] was above 100 µM throughout.
As for `N#CNC(=NCc1ccccc1)N(Cc1ccccc1)Cc1ccccc1`, the TGI in assay [1] is above 31.6 µM; in [2], 23.4 µM; in assay [4], above 31.6 µM; in assay [5], above 31.6 µM; in assay [6], above 31.6 µM; in [7] it was above 100 µM. Also, the TGI in assay [17] is above 31.6 µM; in assay [9], above 31.6 µM; in assay [10] it was above 31.6 µM; in [11], above 31.6 µM; in assay [13] it was 85.3 µM; in assay [14] it was above 31.6 µM. In [15], this compound showed a concentration for total growth inhibition (TGI) above 31.6 µM.
Regarding `O=P(O)(O)C(N=C(Nc1ccccc1)Nc1ccccc1)P(=O)(O)O`, the TGI in assay [1], in [2], in assay [3], in assay [5], in assay [6] and in assay [16] was above 100 µM throughout. The TGI in assay [8], in [9], in assay [10], in [11], in assay [13] and in assay [14] was above 100 µM in each case.
As for `CCOc1cc(/C=C2/C(C)=NN(c3cccc(Cl)c3)/C2=N/c2nc3ccccc3s2)ccc1O`, the TGI in [4] is above 100 µM; in assay [5], 75.5 µM; in assay [6] it was above 100 µM; in assay [8] it was 70.5 µM; in assay [17], above 100 µM; in assay [9], 67.5 µM. Further, the TGI in assay [10] was above 100 µM; in [11], 50.8 µM; in assay [12], above 100 µM; in assay [13], 59.6 µM; in [14], above 100 µM; in [15], 12.4 µM.
In the case of `CC(C)c1cc2c(c(O)c1O)[C@@]1(C(=O)O)CCCC(C)(C)[C@@H]1CC2`, the TGI was 67.4 µM in assay [1]; 30.8 µM in [2]; above 100 µM in assay [3]; 29.8 µM in [4]; 65.2 µM in [6]; 34.5 µM in assay [7]. Besides, the TGI in assay [8] was above 100 µM; in assay [17], 30.3 µM; in assay [9] it was above 100 µM; in assay [10] it was 36.9 µM; in assay [11], 57.3 µM; in [12] it was 34 µM. Further, the TGI is 86.3 µM in assay [13] and 40 µM in assay [14].
As to `CC1=Cc2cccc(C)c2C(=O)C1=O`, the TGI in assay [1] was 25.1 µM; in assay [2], 10.7 µM; in [3] it was 3.49 µM; in assay [4], 31.5 µM; in assay [5], 9.54 µM; in assay [6], 30.2 µM. Moreover, the TGI is 3.26 µM in assay [16]; 36.8 µM in [8]; 4.36 µM in assay [17]; 6.88 µM in assay [9]; 29.2 µM in assay [10]; 6.78 µM in [11]. Besides, the TGI is 29.9 µM in assay [12], 34.2 µM in assay [14] and 1.37 µM in assay [15].
In the case of `COC(C)(C)C1(O)CC[C@@H](C)CC1=O` (some centres not stated), the TGI in assay [1], in assay [2], in assay [3], in [4], in assay [5] and in [6] was above 100 µM in each case. Further, the total growth inhibition concentration (TGI) in [16], in assay [7], in assay [8], in [17], in assay [9] and in assay [10] was above 100 µM throughout. The TGI in assay [11], in [12], in assay [14] and in assay [15] was above 100 µM throughout.
For `CCCCCCCCCCCC[S+](C)C`, the TGI in assay [1] was determined as 26.1 µM; in [2], 21.9 µM; in assay [3], 5.15 µM; in assay [4] it was 25.3 µM; in assay [5] it was 19.9 µM; in assay [6] it was 1.52 µM. Besides, the TGI stood at 22.4 µM in assay [16]; 21.7 µM in assay [8]; 28.4 µM in assay [17]; 20.8 µM in [9]; 6.16 µM in assay [10]; 18.6 µM in assay [11]. Besides, the TGI in [12] came to 16.6 µM; in assay [13], 10.1 µM; in assay [14], 22.5 µM; in assay [15], 14.1 µM.
